Laboratory results reported in US6849632B2, “Heteroaryl alkyl piperazine derivatives” (CV Therapeutics, Inc., priority 2000, dated 2005).
pIC50: −log10 of the molar value. Like-named read-outs stand apart in the source and are kept apart here.

Test system: mitochondrial fatty acid oxidation using palmitoyl CoA as substrate
Test: Palmitoyl CoA oxidation in isolated rat heart mitochondria
Type: biochemical
Details: for Inhibition of mitochondrial fatty acid oxidation using palmitoyl CoA as substrate - % of Control, 100 μm (%): 100 μm compound
Method: Rat heart mitochondria were isolated by the method of Nedergard and Cannon (Methods in Enzymol. 55, 3, 1979). Palmitoyl CoA oxidation—The Palmityl CoA oxidation was carried out in a total volume of 100 micro liters containing the following agents: 110 mM KCl, 33 mM Tris buffer at pH 8, 2 mM KPi, 2 mM MgCl2, 0.1 mM EDTA, 14.7 microM defatted BSA, 0.5 mM malic acid, 13 mM carnitine, 1 mM ADP, 52 micrograms of mitochondrial protein, and 16 microM 1-C14 palmitoyl CoA (Sp. Activity 60 mCi/mmole; 20 microCi/ml, using 5 microliters per assay). The compounds of this invention were added in a DMSO solution at the following concentrations: 100 microM, and 50 microM. In each assay, a DMSO control was used. After 15 min at 30° C., the enzymatic reaction was centrifuged (20,000 g for 1 min), and 70 microliters of the supernatant was added to an activated reverse phase silicic acid column (approximately 0.5 ml of silicic acid). The column was eluted with 2 ml of water, and 0.5 ml of the eluent was used for scintillation counting to determine the amount of C^14 trapped as C^14 bicarbonate ion.

[1] = Table IA, read-out: Effect on Palmitoyl CoA Oxidation (IC50)

| Compound | pIC50 [1] | other results |
| --- | --- | --- |
| 2-{4-[(2S)-2-hydroxy-3-(2-methylbenzothiazol--yloxy)propyl]piperazinyl}-N-(4-phenoxyphenyl)acetamide | 6.48 | – |
| Cc1nc2ccc(OCC(O)CN3CCN(CC(=O)Nc4c(C)cccc4C)CC3)cc2s1 (stereo not shown) [Compound 49, N-(2,6-dimethylphenyl)-2-{4-[2-hydroxy-3-(2-methyl-benzothiazol-6-yloxy)-propyl]-piperazin-1-yl}aceamide] | – | Inhibition of mitochondrial fatty acid oxidation using palmitoyl CoA as substrate - % of Control, 100 μm (%) (15 min at 30° C.): 3% |
| Cc1nc2cc(OC[C@@H](O)CN3CCN(CC(=O)Nc4c(C)cccc4C)C[C@H]3C)ccc2s1 [2-{(3R)-4-[(2S)-2-hydroxy-3-(2-methylbenzothiazol-5-yloxy)propyl]-3-methylpiperazinyl}-N-(2,6-dimethylphenyl)acetamide] | 5.70 | – |
| 2-{4-[(2S)-2-hydroxy-3-(2-phenylbenzoxazol-5-yloxy)propyl]piperazinyl}-N-(3-phenylphenyl)acetamide | 4.59 | – |
| 2-{4-[(2S)-2-hydroxy-3-(2-phenylbenzoxazol-5-yloxy)propyl]piperazinyl}-N-(4-phenoxyphenyl)acetamide | 4.95 | – |
| 2-{4-[(2S)-2-hydroxy-3-(2-methylbenzothiazol-5-yloxy)propyl]piperazinyl}-N-(4-phenylphenyl)acetamide | 6.34 | – |
| Cc1cccc(C)c1NC(=O)CN1CCN(CC(O)CNc2nc3ccccc3o2)CC1 (stereo not shown) [Compound 82, 2-{4-[3-(benzoxazol-2-ylamino)-2-hydroxypropyl]piperazinyl}-N-(2,6-dimethylphenyl)acetamide] | – | Inhibition of mitochondrial fatty acid oxidation using palmitoyl CoA as substrate - % of Control, 100 μm (%) (15 min at 30° C.): 22% |
| 2-{(3S)-4-[(2S)-2-hydroxy-3-(2-methylbenzothiazol-5-yloxy)propyl]-3-methylpiperazinyl}-N-(4-cyanophenyl)acetamide | 6.39 | – |
| Cc1cccc(C)c1NC(=O)CN1CCN(CC(O)CNc2nc3ccccc3s2)CC1 (stereo not shown) [Compound 39, 2-{4-[3-(benzothiazol-2-ylamino)-2-hydroxypropyl]piperazinyl}-N-(2,6-dimethylphenyl)acetamide] | – | Inhibition of mitochondrial fatty acid oxidation using palmitoyl CoA as substrate - % of Control, 100 μm (%) (15 min at 30° C.): 27% |
| Cc1nc2cc(OCC(O)CN3CCN(CC(=O)Nc4ccc(O)cc4)CC3)ccc2s1 (stereo not shown) [Compound 54, 2-{4-[2-hydroxy-3-(2-methyl-benzothiazol-5-yloxy)-propyl]-piperazin-1-yl}-N-(4-hydroxy-phenyl)acetamide] | – | Inhibition of mitochondrial fatty acid oxidation using palmitoyl CoA as substrate - % of Control, 100 μm (%) (15 min at 30° C.): 81%; pIC50 (Table 1, read-out: IC50 (μm), inhibition of mitochondrial fatty acid oxidation using palmitoyl CoA as substrate): ~5.10 |
| Cc1cccc(C)c1NC(=O)CN1CCN(CC(O)COc2ccc3oc(-c4cccc(C(F)(F)F)c4)nc3c2)CC1 (stereo not shown) [Compound 7, N-(2,6-dimethyl-phenyl)-2-(4-{2-hydroxy-3-[2-(3-trifluoromethylphenyl)benzoxazol-5-yloxy]-propyl}-piperazin-1-yl)acetamide] | – | Inhibition of mitochondrial fatty acid oxidation using palmitoyl CoA as substrate - % of Control, 50 μm (%) (50 μm compound, 15 min at 30° C.): 77% |
| Cc1cccc(C)c1NC(=O)CN1CCN(C[C@H](O)COc2ccc3oc(-c4cccc(C(F)(F)F)c4)nc3c2)CC1 [2-[4-((2S)-2-hydroxy-3-{2-[3-(trifluoromethyl)phenyl]benzoxazol-5-yloxy}propyl)piperazinyl]-N-(2,6-dimethylphenyl)acetamide] | 4.89 | – |
| 2-(4-{(2S)-3-[2-(4-chlorophenyl)benzoxazol-5-yloxy]-2-hydroxypropyl}piperazinyl)-N-[4-(trifluoromethyl)phenyl]acetamide | 4.89 | – |
| Cc1nc2cc(OC[C@@H](O)CN3CCN(CC(=O)Nc4c(C)cccc4C)C[C@@H]3C)ccc2s1 [2-{(3S)-4-[(2S)-2-hydroxy-3-(2-methylbenzothiazol-5-yloxy)propyl]-3-methylpiperazinyl}-N-(2,6-dimethylphenyl)acetamide] | 6.70 | – |
| 2-{4-[(2S)-2-hydroxy-3-(2-methylbenzothiazol-5-yloxy)propyl]piperazinyl}-N-[4-(4-chlorophenoxy)phenyl]acetamide | 5.70 | – |
